# Laboratory results taken from ChEMBL document CHEMBL3885861, “Open TG-GATES”.
# Organism: Rattus norvegicus
# Assay: Open TG-GATES - Regimen: Single
# Assay type: toxicity, organism-based, Sprague-Dawley
# Set-up: regimen Single, gender Male, age 6 weeks
# Details: in vivo, po, 25 mg/kg, route gavage, dose level Low; for APTT / Bas / Eos / Fbg / Hb / Ht / Lym / MCH / MCHC / MCV / Mono / Neu / PT / Plat / RBC / Ret / WBC: tissue Blood; for KIDNEY_L / KIDNEY_R / KIDNEY_TOTAL: tissue Kidney; for LIVER: tissue Liver; for A/G / ALP / ALT / AST / BUN / CRE / Ca / Cl / DBIL / GLC / IP / K / LDH / Na / PL / RALB / TBIL / TC / TG / TP / gamma-GTP: tissue Plasma
smiles,measurement,setting,value
CCSCC[C@H](N)C(=O)O [ETHIONINE],TERMINAL_BW,3 h,217.8 g
same,APTT,3 h,19.1 s
same,Bas,3 h,0%
same,Eos,3 h,1.2%
same,Fbg,3 h,211.4 mg/dL
same,Hb,3 h,13.1 g/dL
same,Ht,3 h,38.9%
same,Lym,3 h,83.4%
same,MCH,3 h,21.1 pg
same,MCHC,3 h,33.5%
same,MCV,3 h,62.9 fL
same,Mono,3 h,2.4%
same,Neu,3 h,12.2%
same,PT,3 h,12.4 s
same,Plat,3 h,120.2 x10_4/uL
same,RBC,3 h,619.2 x10_4/ul
same,Ret,3 h,6.9%
same,WBC,3 h,89.8 x10_2/uL
same,KIDNEY_L,3 h,0.9 g
same,KIDNEY_R,3 h,0.9 g
same,KIDNEY_TOTAL,3 h,1.9 g
same,LIVER,3 h,10.1 g
same,A/G,3 h,1.6
same,ALP,3 h,855.8 IU/L
same,ALT,3 h,33 IU/L
same,AST,3 h,66 IU/L
same,BUN,3 h,11.2 mg/dL
same,CRE,3 h,0.4 mg/dL
same,Ca,3 h,10.5 mg/dL
same,Cl,3 h,101.8 meq/L
same,DBIL,3 h,0.056 mg/dL
same,GLC,3 h,202.4 mg/dL
same,IP,3 h,9.7 mg/dL
same,K,3 h,4 meq/L
same,LDH,3 h,212.6 IU/L
same,Na,3 h,140.4 meq/L
same,PL,3 h,138.4 mg/dL
same,RALB,3 h,3.2 g/dL
same,TBIL,3 h,0.1 mg/dL
same,TC,3 h,77.8 mg/dL
same,TG,3 h,61.2 mg/dL
same,TP,3 h,5.2 g/dL
same,gamma-GTP,3 h,1 IU/L
same,TERMINAL_BW,6 h,214.9 g
same,APTT,6 h,19.4 s
same,Bas,6 h,0%
same,Eos,6 h,1%
same,Fbg,6 h,210.6 mg/dL
same,Hb,6 h,13.3 g/dL
same,Ht,6 h,39.1%
same,Lym,6 h,82%
same,MCH,6 h,21.4 pg
same,MCHC,6 h,33.9%
same,MCV,6 h,62.9 fL
same,Mono,6 h,2.4%
same,Neu,6 h,14%
same,PT,6 h,12.7 s
same,Plat,6 h,118.7 x10_4/uL
same,RBC,6 h,620.4 x10_4/ul
same,Ret,6 h,6.7%
same,WBC,6 h,82.3 x10_2/uL
same,KIDNEY_L,6 h,1 g
same,KIDNEY_R,6 h,1 g
same,KIDNEY_TOTAL,6 h,2 g
same,LIVER,6 h,9.3 g
same,A/G,6 h,1.6
same,ALP,6 h,885.2 IU/L
same,ALT,6 h,31.4 IU/L
same,AST,6 h,63.8 IU/L
same,BUN,6 h,9.4 mg/dL
same,CRE,6 h,0.4 mg/dL
same,Ca,6 h,10.2 mg/dL
same,Cl,6 h,102.8 meq/L
same,DBIL,6 h,0.058 mg/dL
same,GLC,6 h,191.2 mg/dL
same,IP,6 h,9.5 mg/dL
same,K,6 h,3.8 meq/L
same,LDH,6 h,224.2 IU/L
same,Na,6 h,139.6 meq/L
same,PL,6 h,126.8 mg/dL
same,RALB,6 h,3.2 g/dL
same,TBIL,6 h,0.1 mg/dL
same,TC,6 h,66.4 mg/dL
same,TG,6 h,52.6 mg/dL
same,TP,6 h,5.2 g/dL
same,gamma-GTP,6 h,1.6 IU/L
same,TERMINAL_BW,9 h,212.9 g
same,APTT,9 h,18.9 s
same,Bas,9 h,0%
same,Eos,9 h,1%
same,Fbg,9 h,228.2 mg/dL
same,Hb,9 h,13.4 g/dL
same,Ht,9 h,39.3%
same,Lym,9 h,71%
same,MCH,9 h,21.3 pg
same,MCHC,9 h,34%
same,MCV,9 h,62.6 fL
same,Mono,9 h,2.2%
same,Neu,9 h,25.4%
same,PT,9 h,12.6 s
same,Plat,9 h,125.9 x10_4/uL
same,RBC,9 h,629.2 x10_4/ul
same,Ret,9 h,6.8%
same,WBC,9 h,95.5 x10_2/uL
same,KIDNEY_L,9 h,0.9 g
same,KIDNEY_R,9 h,0.9 g
same,KIDNEY_TOTAL,9 h,1.8 g
same,LIVER,9 h,9 g
same,A/G,9 h,1.6
same,ALP,9 h,842.8 IU/L
same,ALT,9 h,33.2 IU/L
same,AST,9 h,69.6 IU/L
same,BUN,9 h,11.2 mg/dL
same,CRE,9 h,0.3 mg/dL
same,Ca,9 h,10.5 mg/dL
same,Cl,9 h,101.8 meq/L
same,DBIL,9 h,0.074 mg/dL
same,GLC,9 h,197 mg/dL
same,IP,9 h,9.6 mg/dL
same,K,9 h,3.7 meq/L
same,LDH,9 h,200.6 IU/L
same,Na,9 h,141 meq/L
same,PL,9 h,123.4 mg/dL
same,RALB,9 h,3.4 g/dL
same,TBIL,9 h,0.1 mg/dL
same,TC,9 h,63.6 mg/dL
same,TG,9 h,75.8 mg/dL
same,TP,9 h,5.6 g/dL
same,gamma-GTP,9 h,0.8 IU/L
same,TERMINAL_BW,24 h,231.8 g
same,APTT,24 h,20 s
same,Bas,24 h,0%
same,Eos,24 h,1%
same,Fbg,24 h,234 mg/dL
same,Hb,24 h,13.3 g/dL
same,Ht,24 h,38.9%
same,Lym,24 h,80%
same,MCH,24 h,21.7 pg
same,MCHC,24 h,34.2%
same,MCV,24 h,63.6 fL
same,Mono,24 h,3%
same,Neu,24 h,15.4%
same,PT,24 h,12.7 s
same,Plat,24 h,126.9 x10_4/uL
same,RBC,24 h,612 x10_4/ul
same,Ret,24 h,6.8%
same,WBC,24 h,103.2 x10_2/uL
same,KIDNEY_L,24 h,1 g
same,KIDNEY_R,24 h,1 g
same,KIDNEY_TOTAL,24 h,2 g
same,LIVER,24 h,11.1 g
same,A/G,24 h,1.6
same,ALP,24 h,978 IU/L
same,ALT,24 h,34.2 IU/L
same,AST,24 h,68 IU/L
same,BUN,24 h,14.6 mg/dL
same,CRE,24 h,0.4 mg/dL
same,Ca,24 h,10.6 mg/dL
same,Cl,24 h,102.4 meq/L
same,DBIL,24 h,0.098 mg/dL
same,GLC,24 h,209 mg/dL
same,IP,24 h,8.3 mg/dL
same,K,24 h,4 meq/L
same,LDH,24 h,230.4 IU/L
same,Na,24 h,140 meq/L
same,PL,24 h,142.8 mg/dL
same,RALB,24 h,3.5 g/dL
same,TBIL,24 h,0.1 mg/dL
same,TC,24 h,67.8 mg/dL
same,TG,24 h,122.6 mg/dL
same,TP,24 h,5.6 g/dL
same,gamma-GTP,24 h,1.4 IU/L
